Assay results reported in patent publication US9150632B2 (Indiana University Research and Technology Corporation, priority 2009, dated 2015).
Where two headings read alike, the source gives them in different places.

Columns and labels:
glucagon receptor = molecular target: T1, glucagon receptor (Homo sapiens, UniProt P47871); assay: Functional assay-cAMP synthesis, luciferase reporter in HEK293 cells, glucagon receptor; format: cell-based; design: % activity: concentration or dose not given beside the values; settings: for % Activity of Glucagon: Table 21, relative to the native peptide; for % activity: Table 26, glucagon receptor
T1 construct: expressed in transfected cells; host or cells: HEK293

GLP-1 receptor = GLP-1 receptor (Homo sapiens, UniProt P43220); settings: for % Activity of GLP-1: Table 21, relative to the native peptide; for GLP-1 Receptor Relative Potency: Table 11
Chain of GLP-1 receptor (P43220 24-463, species assumed): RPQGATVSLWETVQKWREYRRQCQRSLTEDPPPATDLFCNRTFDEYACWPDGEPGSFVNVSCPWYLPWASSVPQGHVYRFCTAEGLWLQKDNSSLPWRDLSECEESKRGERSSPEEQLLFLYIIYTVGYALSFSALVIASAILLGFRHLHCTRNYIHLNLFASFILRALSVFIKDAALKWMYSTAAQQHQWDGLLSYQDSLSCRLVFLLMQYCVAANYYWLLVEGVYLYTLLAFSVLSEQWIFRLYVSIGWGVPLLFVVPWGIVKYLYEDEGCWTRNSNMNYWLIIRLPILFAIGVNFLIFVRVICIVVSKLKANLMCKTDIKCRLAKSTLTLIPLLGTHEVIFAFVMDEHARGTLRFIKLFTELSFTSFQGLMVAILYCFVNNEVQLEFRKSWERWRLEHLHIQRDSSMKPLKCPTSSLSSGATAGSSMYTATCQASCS

T1 sequence (P47871 26-477): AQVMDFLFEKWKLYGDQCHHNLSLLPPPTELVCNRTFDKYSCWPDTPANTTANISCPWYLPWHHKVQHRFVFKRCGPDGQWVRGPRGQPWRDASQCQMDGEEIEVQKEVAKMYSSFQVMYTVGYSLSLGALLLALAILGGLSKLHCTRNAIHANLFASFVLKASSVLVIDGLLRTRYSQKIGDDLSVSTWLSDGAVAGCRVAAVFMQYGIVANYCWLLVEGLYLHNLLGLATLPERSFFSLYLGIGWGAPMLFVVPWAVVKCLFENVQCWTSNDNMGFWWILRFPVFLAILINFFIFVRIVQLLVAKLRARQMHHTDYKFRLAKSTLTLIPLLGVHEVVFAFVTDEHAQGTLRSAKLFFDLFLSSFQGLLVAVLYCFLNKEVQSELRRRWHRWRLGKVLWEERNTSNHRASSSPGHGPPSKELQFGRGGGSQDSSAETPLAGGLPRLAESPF

SMILES | % Activity of Glucagon (glucagon receptor) [%] | % Activity of GLP-1 (GLP-1 receptor) [%] | % activity (glucagon receptor) [%] | also measured
CCCCCCCCCCCCCC(=O)NCCCC[C@H](NC(=O)[C@H](CC(=O)O)NC(=O)[C@H](CO)NC(=O)[C@@H](NC(=O)[C@H](Cc1ccccc1)NC(=O)[C@@H](NC(=O)CNC(=O)[C@H](CCC(N)=O)NC(=O)C(C)(C)NC(=O)[C@@H](N)Cc1c[nH]cn1)[C@@H](C)O)[C@@H](C)O)C(=O)N[C@@H](CO)C(=O)N[C@@H](CCCCN)C(=O)N[C@@H](Cc1ccc(O)cc1)C(=O)N[C@@H](CC(C)C)C(=O)N[C@@H](CC(=O)O)C(=O)NC(C)(C)C(=O)N[C@@H](CCCNC(=N)N)C(=O)N[C@@H](CCCNC(=N)N)C(=O)N[C@@H](C)C(=O)N[C@@H](CCC(N)=O)C(=O)N[C@@H](CC(=O)O)C(=O)N[C@@H](Cc1ccccc1)C(=O)N[C@H](C(=O)N[C@@H](CCC(N)=O)C(=O)N[C@@H](Cc1c[nH]c2ccccc12)C(=O)N[C@@H](CC(C)C)C(=O)N[C@@H](CCSC)C(=O)N[C@@H](CC(N)=O)C(=O)N[C@H](C(N)=O)[C@@H](C)O)C(C)C [AIB2, AIB16, K10(C14) Gluc Amide] | 77.3 | 33.3 |  | 
CCCCCCCCCCCCCCCC(=O)NCCCC[C@H](NC(=O)[C@H](CC(=O)O)NC(=O)[C@H](CO)NC(=O)[C@@H](NC(=O)[C@H](Cc1ccccc1)NC(=O)[C@@H](NC(=O)CNC(=O)[C@H](CCC(N)=O)NC(=O)C(C)(C)NC(=O)[C@@H](N)Cc1c[nH]cn1)[C@@H](C)O)[C@@H](C)O)C(=O)N[C@@H](CO)C(=O)N[C@@H](CCCCN)C(=O)N[C@@H](Cc1ccc(O)cc1)C(=O)N[C@@H](CC(C)C)C(=O)N[C@@H](CC(=O)O)C(=O)NC(C)(C)C(=O)N[C@@H](CCCNC(=N)N)C(=O)N[C@@H](CCCNC(=N)N)C(=O)N[C@@H](C)C(=O)N[C@@H](CCC(N)=O)C(=O)N[C@@H](CC(=O)O)C(=O)N[C@@H](Cc1ccccc1)C(=O)N[C@H](C(=O)N[C@@H](CCC(N)=O)C(=O)N[C@@H](Cc1c[nH]c2ccccc12)C(=O)N[C@@H](CC(C)C)C(=O)N[C@@H](CCSC)C(=O)N[C@@H](CC(N)=O)C(=O)N[C@H](C(N)=O)[C@@H](C)O)C(C)C [AIB2, AIB16, K10(C16) Gluc Amide] | 170 | 72.3 |  | 
CCCCCCCCCCCCCCCCCC(=O)NCCCC[C@H](NC(=O)[C@H](CC(=O)O)NC(=O)[C@H](CO)NC(=O)[C@@H](NC(=O)[C@H](Cc1ccccc1)NC(=O)[C@@H](NC(=O)CNC(=O)[C@H](CCC(N)=O)NC(=O)C(C)(C)NC(=O)[C@@H](N)Cc1c[nH]cn1)[C@@H](C)O)[C@@H](C)O)C(=O)N[C@@H](CO)C(=O)N[C@@H](CCCCN)C(=O)N[C@@H](Cc1ccc(O)cc1)C(=O)N[C@@H](CC(C)C)C(=O)N[C@@H](CC(=O)O)C(=O)NC(C)(C)C(=O)N[C@@H](CCCNC(=N)N)C(=O)N[C@@H](CCCNC(=N)N)C(=O)N[C@@H](C)C(=O)N[C@@H](CCC(N)=O)C(=O)N[C@@H](CC(=O)O)C(=O)N[C@@H](Cc1ccccc1)C(=O)N[C@H](C(=O)N[C@@H](CCC(N)=O)C(=O)N[C@@H](Cc1c[nH]c2ccccc12)C(=O)N[C@@H](CC(C)C)C(=O)N[C@@H](CCSC)C(=O)N[C@@H](CC(N)=O)C(=O)N[C@H](C(N)=O)[C@@H](C)O)C(C)C [AIB2, AIB16, K10(C18) Gluc Amide] | 212.5 | 88.9 |  | 
CSCC[C@H](NC(=O)[C@H](CC(C)C)NC(=O)[C@H](Cc1c[nH]c2ccccc12)NC(=O)[C@H](CCC(N)=O)NC(=O)[C@@H](NC(=O)[C@H](Cc1ccccc1)NC(=O)[C@H](CC(=O)O)NC(=O)[C@H](CCCCN)NC(=O)[C@H](C)NC(=O)[C@H](CCCNC(=N)N)NC(=O)[C@H](CCCNC(=N)N)NC(=O)[C@H](CCC(=O)O)NC(=O)[C@H](CC(=O)O)NC(=O)[C@H](CC(C)C)NC(=O)[C@H](Cc1ccc(O)cc1)NC(=O)[C@H](CCCCN)NC(=O)[C@H](CO)NC(=O)[C@H](Cc1ccc(O)cc1)NC(=O)[C@H](CC(=O)O)NC(=O)[C@H](CO)NC(=O)[C@@H](NC(=O)[C@H](Cc1ccccc1)NC(=O)[C@@H](NC(=O)CNC(=O)[C@H](CCC(N)=O)NC(=O)[C@H](CO)NC(=O)[C@@H](N)Cc1c[nH]cn1)[C@@H](C)O)[C@@H](C)O)C(C)C)C(=O)N[C@@H](CC(N)=O)C(=O)N[C@H](C(N)=O)[C@@H](C)O [E16, K20 Gluc-NH2] |  |  |  | Percent Potency Relative to Native Ligand GRec (glucagon receptor; Table 5): 130.1%; Percent Potency Relative to Native Ligand GRec (glucagon receptor; Table 9): 130.1%; Percent Potency Relative to Native Ligand GLP-1Rec (GLP-1 receptor; Table 5): 41.5%; Percent Potency Relative to Native Ligand GLP-1Rec (GLP-1 receptor; Table 9): 41.5%
CC[C@H](C)[C@H](NC(=O)[C@H](Cc1ccccc1)NC(=O)[C@H](CCC(=O)O)NC(=O)[C@H](CCCCN)NC(=O)[C@H](C)NC(=O)[C@H](C)NC(=O)[C@H](CCC(N)=O)NC(=O)CNC(=O)[C@H](CCC(=O)O)NC(=O)[C@H](CC(C)C)NC(=O)[C@H](Cc1ccc(O)cc1)NC(=O)[C@H](CO)NC(=O)[C@H](CO)NC(=O)[C@@H](NC(=O)[C@H](CC(=O)O)NC(=O)[C@H](CO)NC(=O)[C@@H](NC(=O)[C@H](Cc1ccccc1)NC(=O)[C@@H](NC(=O)CNC(=O)[C@H](CCC(=O)O)NC(=O)[C@H](C)NC(=O)[C@@H](N)Cc1c[nH]cn1)[C@@H](C)O)[C@@H](C)O)C(C)C)C(=O)N[C@@H](C)C(=O)N[C@@H](Cc1c[nH]c2ccccc12)C(=O)N[C@@H](CC(C)C)C(=O)N[C@H](C(=O)N[C@@H](CCCCN)C(=O)NCC(=O)NCC(N)=O)C(C)C [GLP-1-VKGG^30 (SEQ ID NO: 527), HAEGTFTSDVSSYLEGQAAKEFIAW LVKGGa, reference compound] |  |  |  | GLP-1 Receptor Relative Potency (GLP-1 receptor): 100%
CSCC[C@H](NC(=O)[C@H](CC(C)C)NC(=O)[C@H](Cc1c[nH]c2ccccc12)NC(=O)[C@H](CCC(N)=O)NC(=O)[C@@H](NC(=O)[C@H](Cc1ccccc1)NC(=O)[C@H](CC(=O)O)NC(=O)[C@H](CCC(N)=O)NC(=O)[C@H](C)NC(=O)[C@H](CCCNC(=N)N)NC(=O)[C@H](CCCNC(=N)N)NC(=O)[C@H](CO)NC(=O)[C@H](CC(=O)O)NC(=O)[C@H](CC(C)C)NC(=O)[C@H](Cc1ccc(O)cc1)NC(=O)[C@H](CCCCN)NC(=O)[C@H](CO)NC(=O)[C@H](Cc1ccc(O)cc1)NC(=O)[C@H](CC(=O)O)NC(=O)[C@H](CO)NC(=O)[C@@H](NC(=O)[C@H](Cc1ccccc1)NC(=O)[C@@H](NC(=O)CNC(=O)[C@H](CCC(N)=O)NC(=O)[C@H](CO)NC(=O)[C@@H](N)Cc1c[nH]cn1)[C@@H](C)O)[C@@H](C)O)C(C)C)C(=O)N[C@@H](CCCCN)C(=O)NCC(=O)NCC(=O)N1CCC[C@H]1C(=O)N[C@@H](CO)C(=O)N[C@@H](CO)C(=O)NCC(=O)N[C@@H](C)C(=O)N1CCC[C@H]1C(=O)N1CCC[C@H]1C(=O)N1CCC[C@H]1C(=O)N[C@@H](CO)C(N)=O [MKGG^30 PSSGAPPPS (SEQ ID NO: 523)] |  |  |  | Glucagon Receptor Relative Potency (glucagon receptor; Table 11): 14%; GLP-1 Receptor Relative Potency (GLP-1 receptor): 3%

Now from value to compound, other results behind:

% Activity of Glucagon (glucagon receptor) [%] | % Activity of GLP-1 (GLP-1 receptor) [%] | % activity (glucagon receptor) [%] | SMILES | also measured
 |  | 7 | CCCC[C@H](NC(=O)[C@H](CC(C)C)NC(=O)[C@H](Cc1c[nH]c2ccccc12)NC(=O)[C@H](C)NC(=O)[C@@H](NC(=O)[C@H](Cc1ccccc1)NC(=O)[C@H](CCC(=O)O)NC(=O)[C@H](C)NC(=O)[C@H](C)NC(=O)[C@H](CCCNC(=N)N)NC(=O)[C@H](CCCNC(=N)N)NC(=O)[C@@H](NC(=O)[C@H](CC(=O)O)NC(=O)[C@H](CC(C)C)NC(=O)[C@H](Cc1ccc(O)cc1)NC(=O)[C@H](CCCCN)NC(=O)[C@H](CO)NC(=O)[C@H](Cc1ccc(O)cc1)NC(=O)[C@H](CC(=O)O)NC(=O)[C@H](CO)NC(=O)[C@@H](NC(=O)[C@H](Cc1ccccc1)NC(=O)[C@@H](NC(=O)CNC(=O)[C@H](CC[S+](C)[O-])NC(=O)[C@H](CO)NC(=O)[C@@H](N)Cc1c[nH]cn1)[C@@H](C)O)[C@@H](C)O)[C@@H](C)O)C(C)C)C(=O)N[C@@H](CC(=O)O)C(=O)N[C@@H](CCC(=O)O)C(=O)O (some centres unmarked) [SEQ ID NO: 598] | 
 |  | 7 | CCCC[C@H](NC(=O)[C@H](CC(C)C)NC(=O)[C@H](Cc1c[nH]c2ccccc12)NC(=O)[C@H](C)NC(=O)[C@@H](NC(=O)[C@H](Cc1ccccc1)NC(=O)[C@H](CCC(=O)O)NC(=O)[C@H](C)NC(=O)[C@H](C)NC(=O)[C@H](CCCNC(=N)N)NC(=O)[C@H](CCCNC(=N)N)NC(=O)[C@@H](NC(=O)[C@H](CC(=O)O)NC(=O)[C@H](CC(C)C)NC(=O)[C@H](Cc1ccc(O)cc1)NC(=O)[C@H](CCCCN)NC(=O)[C@H](CO)NC(=O)[C@H](Cc1ccc(O)cc1)NC(=O)[C@H](CC(=O)O)NC(=O)[C@H](CO)NC(=O)[C@@H](NC(=O)[C@H](Cc1ccccc1)NC(=O)[C@@H](NC(=O)CNC(=O)[C@H](CCCNC(C)=O)NC(=O)[C@H](CO)NC(=O)[C@@H](N)Cc1c[nH]cn1)[C@@H](C)O)[C@@H](C)O)[C@@H](C)O)C(C)C)C(=O)N[C@@H](CC(=O)O)C(=O)N[C@@H](CCC(=O)O)C(=O)O [SEQ ID NO: 599] | 
 |  | 15 | CSCC[C@H](NC(=O)[C@H](CC(C)C)NC(=O)[C@H](Cc1c[nH]c2ccccc12)NC(=O)[C@H](C)NC(=O)[C@@H](NC(=O)[C@H](Cc1ccccc1)NC(=O)[C@H](CC(=O)O)NC(=O)[C@H](C)NC(=O)[C@H](C)NC(=O)[C@H](CCCNC(=N)N)NC(=O)[C@H](CCCNC(=N)N)NC(=O)C(C)(C)NC(=O)[C@H](CC(=O)O)NC(=O)[C@H](CC(C)C)NC(=O)[C@H](Cc1ccc(O)cc1)NC(=O)[C@H](CCCCN)NC(=O)[C@H](CO)NC(=O)[C@H](Cc1ccc(O)cc1)NC(=O)[C@H](CC(=O)O)NC(=O)[C@H](CO)NC(=O)[C@@H](NC(=O)[C@H](Cc1ccccc1)NC(=O)[C@@H](NC(=O)CNC(=O)[C@H](CCC(N)=O)NC(=O)[C@H](CO)NC(=O)[C@@H](N)Cc1c[nH]cn1)[C@@H](C)O)[C@@H](C)O)C(C)C)C(=O)N[C@@H](CC(=O)O)C(=O)N[C@@H](CCC(=O)O)C(=O)O [SEQ ID NO: 600] | 
 |  | 86 | CSCC[C@H](NC(=O)[C@H](CC(C)C)NC(=O)[C@H](Cc1c[nH]c2ccccc12)NC(=O)[C@H](C)NC(=O)[C@@H](NC(=O)[C@H](Cc1ccccc1)NC(=O)[C@H](CC(=O)O)NC(=O)[C@H](C)NC(=O)[C@H](C)NC(=O)[C@H](CCCNC(=N)N)NC(=O)[C@H](CCCNC(=N)N)NC(=O)C(C)(C)NC(=O)[C@H](CC(=O)O)NC(=O)[C@H](CC(C)C)NC(=O)[C@H](Cc1ccc(O)cc1)NC(=O)[C@H](CCCCN)NC(=O)[C@H](CO)NC(=O)[C@H](Cc1ccc(O)cc1)NC(=O)[C@H](CC(=O)O)NC(=O)[C@H](CO)NC(=O)[C@@H](NC(=O)[C@H](Cc1ccccc1)NC(=O)[C@@H](NC(=O)CNC(=O)[C@H](CCNC(C)=O)NC(=O)[C@H](CO)NC(=O)[C@@H](N)Cc1c[nH]cn1)[C@@H](C)O)[C@@H](C)O)C(C)C)C(=O)N[C@@H](CC(=O)O)C(=O)N[C@@H](CCC(=O)O)C(=O)O [SEQ ID NO: 601] | 
